Assay results published in ChEMBL document CHEMBL4613211, “Aurone: A biologically attractive scaffold as anticancer agent” (Eur J Med Chem, 2019).

Experiments:
HL-60(TB) = test: Growth inhibition of human HL-60(TB) cells at 10 uM after 48 hrs by sulforhodamine B assay relative to control; assay type: functional; conditions: HL-60, 48 h, read-out: GI
MOLT-4 = test: Growth inhibition of human MOLT4 cells at 10 uM after 48 hrs by sulforhodamine B assay relative to control; assay type: functional; conditions: MOLT-4, 48 h, read-out: GI
HOP-62 = test: Growth inhibition of human HOP62 cells at 10 uM after 48 hrs by sulforhodamine B assay relative to control; assay type: functional; conditions: HOP-62, 48 h, read-out: GI
HOP-92 = test: Growth inhibition of human HOP92 cells at 10 uM after 48 hrs by sulforhodamine B assay relative to control; assay type: functional; conditions: HOP-92, 48 h, read-out: GI
NCI-H23 = test: Growth inhibition of human NCI-H23 cells at 10 uM after 48 hrs by sulforhodamine B assay relative to control; assay type: functional; conditions: NCI-H23, 48 h, read-out: GI
NCI-H460 = test: Growth inhibition of human NCI-H460 cells at 10 uM after 48 hrs by sulforhodamine B assay relative to control; assay type: functional; conditions: NCI-H460, 48 h, read-out: GI
HCC 2998 = test: Growth inhibition of human HCC2998 cells at 10 uM after 48 hrs by sulforhodamine B assay relative to control; assay type: functional; conditions: HCC 2998, 48 h, read-out: GI
HCT-15 = test: Growth inhibition of human HCT15 cells at 10 uM after 48 hrs by sulforhodamine B assay relative to control; assay type: functional; conditions: HCT-15, 48 h, read-out: GI
SF-539 = test: Growth inhibition of human SF539 cells at 10 uM after 48 hrs by sulforhodamine B assay relative to control; assay type: functional; conditions: SF-539, 48 h, read-out: GI
U-251 = test: Growth inhibition of human U251 cells at 10 uM after 48 hrs by sulforhodamine B assay relative to control; assay type: functional; conditions: U-251, 48 h, read-out: GI
LOX IMVI = test: Growth inhibition of human LOXIMVI cells at 10 uM after 48 hrs by sulforhodamine B assay relative to control; assay type: functional; conditions: read-out: GI
SK-MEL-2 = test: Growth inhibition of human SK-MEL-2 cells at 10 uM after 48 hrs by sulforhodamine B assay relative to control; assay type: functional; conditions: SK-MEL-2, 48 h, read-out: GI
SK-MEL-28 = test: Growth inhibition of human SK-MEL-28 cells at 10 uM after 48 hrs by sulforhodamine B assay relative to control; assay type: functional; conditions: SK-MEL-28, 48 h, read-out: GI
SK-MEL-5 = test: Growth inhibition of human SK-MEL-5 cells at 10 uM after 48 hrs by sulforhodamine B assay relative to control; assay type: functional; conditions: SK-MEL-5, 48 h, read-out: GI
UACC-257 = test: Growth inhibition of human UACC257 cells at 10 uM after 48 hrs by sulforhodamine B assay relative to control; assay type: functional; conditions: UACC-257, 48 h, read-out: GI
UACC-62 = test: Growth inhibition of human UACC62 cells at 10 uM after 48 hrs by sulforhodamine B assay relative to control; assay type: functional; conditions: UACC-62, 48 h, read-out: GI
IGROV-1 = test: Growth inhibition of human IGROV1 cells at 10 uM after 48 hrs by sulforhodamine B assay relative to control; assay type: functional; conditions: IGROV-1, 48 h, read-out: GI
OVCAR-3 = test: Growth inhibition of human OVCAR3 cells at 10 uM after 48 hrs by sulforhodamine B assay relative to control; assay type: functional; conditions: OVCAR-3, 48 h, read-out: GI
786-0 = test: Growth inhibition of human 786-0 cells at 10 uM after 48 hrs by sulforhodamine B assay relative to control; assay type: functional; conditions: 786-0, 48 h, read-out: GI
ACHN = test: Growth inhibition of human ACHN cells at 10 uM after 48 hrs by sulforhodamine B assay relative to control; assay type: functional; conditions: read-out: GI
MDA-MB-231 = test: Growth inhibition of human MDA-MB-231 cells at 10 uM after 48 hrs by sulforhodamine B assay relative to control; assay type: functional; conditions: MDA-MB-231, 48 h, read-out: GI
BT-549 = test: Growth inhibition of human BT549 cells at 10 uM after 48 hrs by sulforhodamine B assay relative to control; assay type: functional; conditions: BT-549, 48 h, read-out: GI
[1] = target: Cyclin-dependent kinase 2 (Homo sapiens, UniProt P24941); test: Inhibition of CDK2 (unknown origin)

SMILES | inhibition of growth at 10 µM (HL-60(TB)) [%] | inhibition of growth at 10 µM (MOLT-4) [%] | inhibition of growth at 10 µM (HOP-62) [%] | inhibition of growth at 10 µM (HOP-92) [%] | inhibition of growth at 10 µM (NCI-H23) [%] | inhibition of growth at 10 µM (NCI-H460) [%] | inhibition of growth at 10 µM (HCC 2998) [%] | inhibition of growth at 10 µM (HCT-15) [%] | inhibition of growth at 10 µM (SF-539) [%] | inhibition of growth at 10 µM (U-251) [%] | inhibition of growth at 10 µM (LOX IMVI) [%] | inhibition of growth at 10 µM (SK-MEL-2) [%] | inhibition of growth at 10 µM (SK-MEL-28) [%] | inhibition of growth at 10 µM (SK-MEL-5) [%] | inhibition of growth at 10 µM (UACC-257) [%] | inhibition of growth at 10 µM (UACC-62) [%] | inhibition of growth at 10 µM (IGROV-1) [%] | inhibition of growth at 10 µM (OVCAR-3) [%] | inhibition of growth at 10 µM (786-0) [%] | inhibition of growth at 10 µM (ACHN) [%] | other results
COc1ccc(/C=C2\Oc3c(c(OC)c4ccoc4c3CN3CCOCC3)C2=O)cc1 | 56.4 to 65.2 | 56.4 to 65.2 | 56.4 to 65.2 | 56.4 to 65.2 | 56.4 to 65.2 | 56.4 to 65.2 | 56.4 to 65.2 | 56.4 to 65.2 | 56.4 to 65.2 | 56.4 to 65.2 | 56.4 to 65.2 | 56.4 to 65.2 | 56.4 to 65.2 | 56.4 to 65.2 | 56.4 to 65.2 | 56.4 to 65.2 | 56.4 to 65.2 | 56.4 to 65.2 | 56.4 to 65.2 | 56.4 to 65.2 | inhibition of growth at 10 µM (MDA-MB-231): 56.4 to 65.2%; inhibition of growth at 10 µM (BT-549): 56.4 to 65.2%
COc1ccc2c(c1)O/C(=C\c1ccc(OCC(=O)Nc3ccccc3)c(OC)c1)C2=O | 18.9 to 27.1 | 18.9 to 27.1 | 18.9 to 27.1 | 18.9 to 27.1 | 18.9 to 27.1 | 18.9 to 27.1 | 18.9 to 27.1 | 18.9 to 27.1 | 18.9 to 27.1 | 18.9 to 27.1 | 18.9 to 27.1 | 18.9 to 27.1 | 18.9 to 27.1 | 18.9 to 27.1 | 18.9 to 27.1 | 18.9 to 27.1 | 18.9 to 27.1 | 18.9 to 27.1 | 18.9 to 27.1 | 18.9 to 27.1 | inhibition of growth at 10 µM (MDA-MB-231): 18.9 to 27.1%; inhibition of growth at 10 µM (BT-549): 18.9 to 27.1%
COc1cc(/C=C2\Oc3cc4occc4c(OC)c3C2=O)ccc1OCC(=O)Nc1ccccc1 | 67.1 to 79.6 | 67.1 to 79.6 | 67.1 to 79.6 | 67.1 to 79.6 | 67.1 to 79.6 | 67.1 to 79.6 | 67.1 to 79.6 | 67.1 to 79.6 | 67.1 to 79.6 | 67.1 to 79.6 | 67.1 to 79.6 | 67.1 to 79.6 | 67.1 to 79.6 | 67.1 to 79.6 | 67.1 to 79.6 | 67.1 to 79.6 | 67.1 to 79.6 | 67.1 to 79.6 | 67.1 to 79.6 | 67.1 to 79.6 | inhibition of growth at 10 µM (MDA-MB-231): 67.1 to 79.6%; inhibition of growth at 10 µM (BT-549): 67.1 to 79.6%; IC50 [1]: 1110 nM
